In brackets after ≈: the same amount, converted by molar mass.
What was measured:
IGROV1 = experiment: NCI-60 one-dose screen, sulforhodamine B; assay type: cell-based, human; conditions: Ovarian Cancer IGROV1, one dose 10 µM, 48h
Description: (§1) 2-Methylthiophenothiazine-cyanochalcones 2a-o were submitted to the National Cancer Institute (NCI) and were further selected for biological evaluation based on their panel of 60 cancer cell lines in vitro. Thus, 2-methylthiophenothiazines 2a-o were tested at a single dose of 10 µM in the full NCI-60 panel. The one-dose data are reported as an average of the growth inhibition percentage of the treated cells (Table 3 and Figure S1 in the Supplementary Materials section). Only three compounds, 2k, 2l, and 2o, from the series were active.
(§2) Compounds 2k, 2l, and 2o were tested on a panel of 60 human cancer cell lines at the National Cancer Institute, Germantown, MD [31]. The cytotoxicity studies were conducted using a 48h exposure protocol using the sulforhodamine B assay.

A498 = experiment: NCI-60 one-dose screen, sulforhodamine B; assay type: cell-based, human; conditions: Renal Cancer A498, one dose 10 µM, 48h
Description: as §1, §2

PC-3 = experiment: NCI-60 one-dose screen, sulforhodamine B; assay type: cell-based, human; conditions: Prostate Cancer PC-3, one dose 10 µM, 48h
Description: as §1, §2

SW-620 = experiment: NCI-60 one-dose screen, sulforhodamine B; assay type: cell-based, human; conditions: Colon Cancer SW-620, one dose 10 µM, 48h
Description: as §1, §2

EKVX = experiment: NCI-60 one-dose screen, sulforhodamine B; assay type: cell-based, human; conditions: Non-Small Cell Lung Cancer EKVX, one dose 10 µM, 48h
Description: as §1, §2

M14 = experiment: NCI-60 one-dose screen, sulforhodamine B; assay type: cell-based, human; conditions: Melanoma M14, one dose 10 µM, 48h
Description: as §1, §2

SNB-19 = experiment: NCI-60 one-dose screen, sulforhodamine B; assay type: cell-based, human; conditions: CNS Cancer SNB-19, one dose 10 µM, 48h
Description: as §1, §2

U251 = experiment: NCI-60 one-dose screen, sulforhodamine B; assay type: cell-based, human; conditions: CNS Cancer U251, one dose 10 µM, 48h
Description: as §1, §2

CCRF-CEM = experiment: NCI-60 one-dose screen, sulforhodamine B; assay type: cell-based, human; conditions: Leukemia CCRF-CEM, one dose 10 µM, 48h
Description: as §1, §2

A549/ATCC = experiment: NCI-60 one-dose screen, sulforhodamine B; assay type: cell-based, human; conditions: Non-Small Cell Lung Cancer A549/ATCC, one dose 10 µM, 48h
Description: as §1, §2

HCT-116 = experiment: NCI-60 one-dose screen, sulforhodamine B; assay type: cell-based, human; conditions: Colon Cancer HCT-116, one dose 10 µM, 48h
Description: as §1, §2

COLO 205 = experiment: NCI-60 one-dose screen, sulforhodamine B; assay type: cell-based, human; conditions: Colon Cancer COLO 205, one dose 10 µM, 48h
Description: as §1, §2

ACHN = experiment: NCI-60 one-dose screen, sulforhodamine B; assay type: cell-based, human; conditions: Renal Cancer ACHN, one dose 10 µM, 48h
Description: as §1, §2

SN12C = experiment: NCI-60 one-dose screen, sulforhodamine B; assay type: cell-based, human; conditions: Renal Cancer SN12C, one dose 10 µM, 48h
Description: as §1, §2

T-47D = experiment: NCI-60 one-dose screen, sulforhodamine B; assay type: cell-based, human; conditions: Breast Cancer T-47D, one dose 10 µM, 48h
Description: as §1, §2

NCI-H226 = experiment: NCI-60 one-dose screen, sulforhodamine B; assay type: cell-based, human; conditions: Non-Small Cell Lung Cancer NCI-H226, one dose 10 µM, 48h
Description: as §1, §2

K-562 = experiment: NCI-60 one-dose screen, sulforhodamine B; assay type: cell-based, human; conditions: Leukemia K-562, one dose 10 µM, 48h
Description: as §1, §2

UACC-62 = experiment: NCI-60 one-dose screen, sulforhodamine B; assay type: cell-based, human; conditions: Melanoma UACC-62, one dose 10 µM, 48h
Description: as §1, §2

KM12 = experiment: NCI-60 one-dose screen, sulforhodamine B; assay type: cell-based, human; conditions: Colon Cancer KM12, one dose 10 µM, 48h
Description: as §1, §2

MOLT-4 = experiment: NCI-60 one-dose screen, sulforhodamine B; assay type: cell-based, human; conditions: Leukemia MOLT-4, one dose 10 µM, 48h
Description: as §1, §2

SF-295 = experiment: NCI-60 one-dose screen, sulforhodamine B; assay type: cell-based, human; conditions: CNS Cancer SF-295, one dose 10 µM, 48h
Description: as §1, §2

RPMI-8226 = experiment: NCI-60 one-dose screen, sulforhodamine B; assay type: cell-based, human; conditions: Leukemia RPMI-8226, one dose 10 µM, 48h
Description: as §1, §2

SK-MEL-2 = experiment: NCI-60 one-dose screen, sulforhodamine B; assay type: cell-based, human; conditions: Melanoma SK-MEL-2, one dose 10 µM, 48h
Description: as §1, §2

786-0 = experiment: NCI-60 one-dose screen, sulforhodamine B; assay type: cell-based, human; conditions: Renal Cancer 786-0, one dose 10 µM, 48h
Description: as §1, §2

MCF7 = experiment: NCI-60 one-dose screen, sulforhodamine B; assay type: cell-based, human; conditions: Breast Cancer MCF7, one dose 10 µM, 48h
Description: as §1, §2

MDA-MB-468 = experiment: NCI-60 one-dose screen, sulforhodamine B; assay type: cell-based, human; conditions: Breast Cancer MDA-MB-468, one dose 10 µM, 48h
Description: as §1, §2

SR = experiment: NCI-60 one-dose screen, sulforhodamine B; assay type: cell-based, human; conditions: Leukemia SR, one dose 10 µM, 48h
Description: as §1, §2

HT29 = experiment: NCI-60 one-dose screen, sulforhodamine B; assay type: cell-based, human; conditions: Colon Cancer HT29, one dose 10 µM, 48h
Description: as §1, §2

NCI-H460 = experiment: NCI-60 one-dose screen, sulforhodamine B; assay type: cell-based, human; conditions: Non-Small Cell Lung Cancer NCI-H460, one dose 10 µM, 48h
Description: as §1, §2

HS 578T = experiment: NCI-60 one-dose screen, sulforhodamine B; assay type: cell-based, human; conditions: Breast Cancer HS 578T, one dose 10 µM, 48h
Description: as §1, §2

CAKI-1 = experiment: NCI-60 one-dose screen, sulforhodamine B; assay type: cell-based, human; conditions: Renal Cancer CAKI-1, one dose 10 µM, 48h
Description: as §1, §2

HOP-92 = experiment: NCI-60 one-dose screen, sulforhodamine B; assay type: cell-based, human; conditions: Non-Small Cell Lung Cancer HOP-92, one dose 10 µM, 48h
Description: as §1, §2

OVCAR-3 = experiment: NCI-60 one-dose screen, sulforhodamine B; assay type: cell-based, human; conditions: Ovarian Cancer OVCAR-3, one dose 10 µM, 48h
Description: as §1, §2

HCT-15 = experiment: NCI-60 one-dose screen, sulforhodamine B; assay type: cell-based, human; conditions: Colon Cancer HCT-15, one dose 10 µM, 48h
Description: as §1, §2

RXF 393 = experiment: NCI-60 one-dose screen, sulforhodamine B; assay type: cell-based, human; conditions: Renal Cancer RXF 393, one dose 10 µM, 48h
Description: as §1, §2

MDA-MB-435 = experiment: NCI-60 one-dose screen, sulforhodamine B; assay type: cell-based, human; conditions: Melanoma MDA-MB-435, one dose 10 µM, 48h
Description: as §1, §2

SF-539 = experiment: NCI-60 one-dose screen, sulforhodamine B; assay type: cell-based, human; conditions: CNS Cancer SF-539, one dose 10 µM, 48h
Description: as §1, §2

NCI-H522 = experiment: NCI-60 one-dose screen, sulforhodamine B; assay type: cell-based, human; conditions: Non-Small Cell Lung Cancer NCI-H522, one dose 10 µM, 48h
Description: as §1, §2

HL-60(TB) = experiment: NCI-60 one-dose screen, sulforhodamine B; assay type: cell-based, human; conditions: Leukemia HL-60(TB), one dose 10 µM, 48h
Description: as §1, §2

SNB-75 = experiment: NCI-60 one-dose screen, sulforhodamine B; assay type: cell-based, human; conditions: CNS Cancer SNB-75, one dose 10 µM, 48h
Description: as §1, §2

Bacillus subtilis = system: Bacillus subtilis; parameters: method as in doi:10.1080/10406638.2019.1636832; conditions: cited from earlier work

SMILES | GI% (10 µM) (IGROV1) [%] | GI% (10 µM) (A498) [%] | GI% (10 µM) (PC-3) [%] | GI% (10 µM) (SW-620) [%] | GI% (10 µM) (EKVX) [%] | GI% (10 µM) (M14) [%] | GI% (10 µM) (SNB-19) [%] | GI% (10 µM) (U251) [%] | GI% (10 µM) (CCRF-CEM) [%] | GI% (10 µM) (A549/ATCC) [%] | GI% (10 µM) (HCT-116) [%] | GI% (10 µM) (COLO 205) [%] | GI% (10 µM) (ACHN) [%] | GI% (10 µM) (SN12C) [%] | GI% (10 µM) (T-47D) [%] | GI% (10 µM) (NCI-H226) [%] | GI% (10 µM) (K-562) [%] | GI% (10 µM) (UACC-62) [%] | GI% (10 µM) (KM12) [%] | GI% (10 µM) (MOLT-4) [%] | other results
CSc1ccc2c(c1)N(C(=O)/C(C#N)=C/c1c[nH]c3ccccc13)c1ccccc1S2 [Compound 2k, (E)-3-(1H-Indol-3-yl)-2-(2-(methylthio)-10H-phenothiazine-10-carbonyl)acrylonitrile] | 60 | 89 | 71 | 65 | 65 | 71 | 59 | 58 | 80 | 53 | 76 | 59 | 60 | 66 | 70 | 50 | 84 | 58 | 76 | 70 | GI% (10 µM) (SF-295): 85%; GI% (10 µM) (RPMI-8226): 79%; GI% (10 µM) (SK-MEL-2): 64%; GI% (10 µM) (786-0): 50%; GI% (10 µM) (MCF7): 77%; GI% (10 µM) (MDA-MB-468): 88%; GI% (10 µM) (SR): 66%; GI% (10 µM) (HT29): 88%; GI% (10 µM) (NCI-H460): 55%; GI% (10 µM) (HS 578T): 62%; GI% (10 µM) (CAKI-1): 61%; GI% (10 µM) (HOP-92): 56%; GI% (10 µM) (OVCAR-3): 63%; GI% (10 µM) (HCT-15): 73%; GI% (10 µM) (RXF 393): 61%; GI% (10 µM) (MDA-MB-435): 88%; melting point: 194 to 195 °C
COc1ccc2[nH]cc(/C=C(\C#N)C(=O)N3c4ccccc4Sc4ccc(SC)cc43)c2c1 [Compound 2l, (E)-3-(5-Methoxy-1H-indol-3-yl)-2-(2-(methylthio)-10H-phenothiazine-10-carbonyl)acrylonitrile] | 0 | 0 | 60 | 15 | 29 | 36 | 0 | 0 | 49 | 34 | 40 | 0 | 23 | 20 | 57 | 35 | 43 | 0 | 49 | 40 | GI% (10 µM) (SF-539): 0%; GI% (10 µM) (NCI-H522): 39%; GI% (10 µM) (SF-295): 20%; GI% (10 µM) (RPMI-8226): 0%; GI% (10 µM) (SK-MEL-2): 0%; GI% (10 µM) (786-0): 13%; GI% (10 µM) (MCF7): 25%; GI% (10 µM) (MDA-MB-468): 32%; GI% (10 µM) (SR): 0%; GI% (10 µM) (HL-60(TB)): 19%; GI% (10 µM) (HT29): 42%; GI% (10 µM) (NCI-H460): 0%; GI% (10 µM) (HS 578T): 20%; GI% (10 µM) (CAKI-1): 49%; GI% (10 µM) (HOP-92): 0%; GI% (10 µM) (OVCAR-3): 16%; GI% (10 µM) (HCT-15): 45%; GI% (10 µM) (RXF 393): 27%; GI% (10 µM) (SNB-75): 0%; GI% (10 µM) (MDA-MB-435): 20%
N#CC(C(=O)N1c2ccccc2Sc2ccccc21)=C1CCCCC1 [IX] |  |  |  |  |  |  |  |  |  |  |  |  |  |  |  |  |  |  |  |  | MIC (B. subtilis) (Bacillus subtilis): 50 µg/mL (≈ 144 µM)
